Assay results: US12448372B2, “Class of triaromatic compounds targeting bifunctional phosphorylation site of STAT3 and applications thereof” (SHANGHAI YUYAO BIOTECH LTD., priority 2019, dated 2025)
“Also recorded” adds a separate entry of the source. Where two headings read alike, the source gives them in different places.

Legend:
[1] = test system: CFPAC-1; test: Cell proliferation by MTS method, CFPAC-1; assay type: cell-based; settings: Homo sapiens, Pancreatic Cancer
Source text: (§1) (2) Detection of Cell Proliferation by MTS Method
(§2) The MTS assay is a method for indirectly determining the number of living cells via colourimetric method. MTS is a newly synthesised tetrazole compound that reflects cell viability, which can be reduced by succinate dehydrogenase in the mitochondria of living cells to an orange-coloured formazan with an absorbance of the reduced product measured at 490 nm being in proportion to the number of living cells, thus reflecting the cell viability. This assay can be used to evaluate the effect of the compound on the proliferation of pancreatic cancer cells, thereby determining the inhibitory effect of the compound on the proliferation of pancreatic cancer cells and to calculate the IC^50. Each cells were inoculated uniformly into a 96-well plate at a density of 1-20×10^3 cells/well, 100 μL per well, and placed in a constant temperature incubator until the cells adhered to the wall. […] Under light-proof conditions, MTS was added and well mixed, the mixture was placed in a constant temperature incubator at 37° C., and the light absorption value were measured using an enzyme marker at 490 nm and the experiment was repeated for three times, IC50 was calculated with GraphPad5 Prism software.

[2] = test system: H460; test: Cell proliferation by MTS method, H460; assay type: cell-based; settings: Homo sapiens, NCI-H460, Lung Cancer
Source text: as §1, §2

[3] = test system: human pancreatic cancer cells MIAPACA-2; test: Subcutaneous tumor-bearing experiment in nude mice, MIAPACA-2
Description: (1) Subcutaneous Tumor-Bearing Experiment in Nude Mice
Subcutaneous tumor-bearing experiment, i. e. tumour cells were injected subcutaneously into nude mice, and the tumour cells absorbed nutrients from the mice and rapidly proliferated to form tumours.
Tumour volume and mouse weight were measured every four days, and tumour volume was calculated according to the formula of volume=length×width^2×0.52. After 3 weeks post-administration, mice were sacrificed and subcutaneous tumours were peeled off, weighed and photographed.

[4] = test system: HCCC9810; test: Cell proliferation by MTS method, HCCC9810; assay type: cell-based; settings: Liver Cancer
Source text: as §1, §2

[5] = test system: HCT-116; test: Cell proliferation by MTS method, HCT-116; assay type: cell-based; settings: Homo sapiens, Colon Cancer
Source text: as §1, §2

[6] = test system: PLC/PRF-5; test: Cell proliferation by MTS method, PLC/PRF-5; assay type: cell-based; settings: Homo sapiens, Liver Cancer
Source text: as §1, §2

[7] = test system: a variety of tumour cells; test: Cell proliferation by MTS method, summary over a variety of tumour cells; assay type: cell-based; settings: summary over different types of cancer cells; read-out: half effective proliferation inhibition concentration (IC50) against a variety of tumour cells
Source text: as §1, §2

[8] = test system: H1299; test: Cell proliferation by MTS method, H1299; assay type: cell-based; settings: Homo sapiens, NCI-H1299, Lung Cancer
Source text: as §1, §2

[9] = test system: human pancreatic cancer cells PANC-1; test: Subcutaneous tumor-bearing experiment in nude mice, PANC-1
Description: (1-10)×10^6 human pancreatic cancer cells PANC-1 and MIAPACA-2 were injected subcutaneously into the right side of the back of immunodeficient mice (BALB/c-nude, nude mice, 5-6 weeks), and when the tumours grew to about 100 mm^3, the mice were evenly divided into five groups, i. e. blank control group; 5 mg/kg WB737 low-dose group; 10 mg/kg WB737 medium-dose group; 20 mg/kg WB737 high-dose group; 10 mg/kg IACS-010759 positive control group; all the above compounds were formulated with 0.5% MC and administered by gavage. Tumour volume and mouse weight were measured every four days, and tumour volume was calculated according to the formula of volume=length×width^2×0.52. After 3 weeks post-administration, mice were sacrificed and subcutaneous tumours were peeled off, weighed and photographed.

[10] = test system: STAT3-Tyr705 and Ser727 in pancreatic cancer cells; test: Western blot of STAT3 phosphorylation in pancreatic cancer cells; assay type: cell-based; settings: 12-24 h, FIG. 1A
Source text: Finally, the expression levels of protein were detected by Odyssey scanner.

[11] = test system: MKN45; test: Cell proliferation by MTS method, MKN45; assay type: cell-based; settings: Homo sapiens, MKN-45
Procedure, shortened: (§3)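 Cells seeded at 1-20×10^3 cells/well and allowed to adhere, then exposed to graded compound concentrations for 24-96 h. MTS added and incubated at 37° C in the dark, absorbance read at 490 nm. Three repeats; IC50 from concentration-response.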

[12] = test system: A549; test: Cell proliferation by MTS method, A549; assay type: cell-based; settings: Homo sapiens, Lung Cancer
Source text: as §1, §2

[13] = test system: SK-hep1; test: Cell proliferation by MTS method, SK-hep1; assay type: cell-based; settings: Homo sapiens, Liver Cancer
Source text: as §1, §2

[14] = target: STAT3 protein (Homo sapiens, UniProt P40763); test: Binding activity to STAT3 protein by microscale thermophoresis (MST); settings: purified STAT3 recombinant protein
Procedure, shortened: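 His-tag-labelled purified recombinant STAT3 (final 100–200 nM) was mixed with compounds at 16 concentrations in MST buffer and incubated 30 min protected from light. Thermophoresis read in capillaries gave KD values.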

[15] = test system: HepG2; test: Cell proliferation by MTS method, HepG2; assay type: cell-based; settings: Homo sapiens, Liver Cancer
Source text: as §1, §2

[16] = test system: Human pancreatic cancer cells (ASPC-1); test: In situ growth metastasis model of pancreatic cancer, ASPC-1 in nude mice; assay type: in vivo; settings: in situ growth metastasis model (ASPC-1), nude mice, 5, 10, 20 mg/kg by gavage once a day, FIG. 4D
Description: (2) In situ growth metastasis model of pancreatic cancer. Human pancreatic cancer cells (ASPC-1) were used to bear tumors in the pancreas of age-appropriate nude mice, 6 or more mice in each group. One week after injection of tumour cells, all mice were randomly divided to the control group, WB737-5 mg/kg low dose group, 10 mg/kg medium dose group, 20 mg/kg high dose group and positive compound group. Different doses of WB737 or the positive compound were administered by gavage, and mice of control group were administered the same dose of solvent orally […], dosing once a day. During the experiment, the time and number of mice died due to pancreatic cancer metastasis were counted, and the results of the experiment were counted and survival curves were plotted.

[17] = test system: Capan-2; test: Cell proliferation by MTS method, Capan-2; assay type: cell-based; settings: Homo sapiens
Procedure, shortened: as §3

[18] = test system: HCT8; test: Cell proliferation by MTS method, HCT8; assay type: cell-based; settings: Homo sapiens, HCT-8, Colon Cancer
Source text: as §1, §2

[19] = test system: HT29; test: Cell proliferation by MTS method, HT29; assay type: cell-based; settings: Homo sapiens, HT-29, Colon Cancer
Source text: as §1, §2

[20] = test system: MGC803; test: Cell proliferation by MTS method, MGC803; assay type: cell-based; settings: Homo sapiens, MGC-803, gastric Cancer
Source text: as §1, §2

[21] = test system: MIAPACA-2; test: Cell proliferation by MTS method, MIAPACA-2; assay type: cell-based; settings: Homo sapiens, MIA PaCa-2, Pancreatic Cancer
Source text: as §1, §2

Chain of STAT3 protein (P40763 whole entry): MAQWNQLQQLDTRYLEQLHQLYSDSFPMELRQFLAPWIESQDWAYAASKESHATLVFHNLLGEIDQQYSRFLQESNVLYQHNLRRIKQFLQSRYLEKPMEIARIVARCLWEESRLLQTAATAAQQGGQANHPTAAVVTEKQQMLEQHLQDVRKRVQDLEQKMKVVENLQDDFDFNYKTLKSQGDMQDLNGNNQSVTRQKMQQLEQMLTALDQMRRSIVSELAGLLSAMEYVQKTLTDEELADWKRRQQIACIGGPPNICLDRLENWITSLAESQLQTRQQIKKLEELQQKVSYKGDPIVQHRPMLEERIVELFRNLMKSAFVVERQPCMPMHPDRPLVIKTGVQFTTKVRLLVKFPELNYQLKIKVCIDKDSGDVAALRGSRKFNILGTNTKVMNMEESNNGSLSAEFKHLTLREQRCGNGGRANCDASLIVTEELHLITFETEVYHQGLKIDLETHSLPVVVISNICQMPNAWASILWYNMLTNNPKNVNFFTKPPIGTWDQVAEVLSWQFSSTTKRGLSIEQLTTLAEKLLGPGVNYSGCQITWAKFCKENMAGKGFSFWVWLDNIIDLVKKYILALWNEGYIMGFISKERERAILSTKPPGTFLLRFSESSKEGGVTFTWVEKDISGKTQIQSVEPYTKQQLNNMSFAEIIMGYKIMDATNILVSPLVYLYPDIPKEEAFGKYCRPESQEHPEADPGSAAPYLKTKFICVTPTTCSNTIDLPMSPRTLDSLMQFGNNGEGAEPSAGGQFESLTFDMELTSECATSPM

## Cn1c(C(=O)N2CCN(Cc3ccc(OCC(F)(F)F)cc3)CC2)cc2ccc(Oc3cnc(-c4nc(-c5ccc(C(F)(F)F)cc5)no4)cn3)cc21 [Example 6, (6-((5-(3-(4-(trifluoromethyl)phenyl)-1,2,4-oxadiazol-5-yl)pyrazin-2-yl)oxy)1-methyl-1H-indol-2-yl)(4-(4-(2,2,2-trifluoroethoxy)benzyl)piperazin-1-yl)methanone]
[1]
  IC50: 3.1 nM
[2]
  IC50: 4.6 nM
[3]; MIAPACA-2 subcutaneous model, gavage, WB737 5-20 mg/kg, IACS-010759 10 mg/kg, FIG. 3D/5D
  effect on the body weight of mice: no significant effect on the body weight of mice; also recorded: good tolerability
[3]; MIAPACA-2 subcutaneous, BALB/c-nude mice, 5, 10, 20 mg/kg by gavage, 3 weeks, FIG. 3
  tumor growth (tumor volume and tumor weight): significantly inhibits the growth of pancreatic tumour
[4]
  IC50: 73.3 nM
[5]
  IC50: 11.3 nM
[6]
  IC50: 1.8 nM
[7]
  IC50: 0.5 to 32 nM
[8]
  IC50: 26 nM
[9]; PANC-1 subcutaneous model, gavage, WB737 5-20 mg/kg, IACS-010759 10 mg/kg, FIG. 2D/5C
  effect on the body weight of mice: no significant effect on the body weight of mice; also recorded: good tolerability
[9]; PANC-1 subcutaneous, BALB/c-nude mice, 5, 10, 20 mg/kg by gavage, 3 weeks, FIG. 2
  tumor growth (tumor volume and tumor weight): significantly inhibits the growth of pancreatic tumour
[9]; PANC-1 tumour tissues, FIG. 2E and 2F
  phosphorylation of STAT3^Y705/S727 bifunctional phosphorylation site in tumour tissue (WB and IHC): dose-dependently inhibits phosphorylation
[10]
  concentration that completely inhibits the expression of STAT3-Tyr705 and Ser727: lower than 50 nM
[11]; Table 1, MKN45, read-out: Tumour cell proliferative activity/IC50(nM) gastric Cancer MKN45
  IC50: < 10 nM
[11]; gastric Cancer, MKN45, read-out: IC50
  IC50: 1.6 nM
[12]
  IC50: 11.9 nM
[13]
  IC50: 18.6 nM
[14]
  Kd: < 10 nM
[15]
  IC50: 12 nM
[16]
  survival of mice: significantly prolongs the survival of mice
[17]; Pancreatic Cancer, Capan-2, read-out: IC50
  IC50: 9.4 nM
[17]; Table 1, Capan-2, read-out: Tumour cell proliferative activity/IC50(nM) Pancreatic Cancer Capan-2
  IC50: < 10 nM
[18]
  IC50: 20.9 nM
[19]
  IC50: 31.6 nM
[20]
  IC50: 3.6 nM
[21]
  IC50: 8.8 nM
